In PMC10057394, “Exploring the Antitubercular Activity of Anthranilic Acid Derivatives: From MabA (FabG1) Inhibition to Intrabacterial Acidification” (Pharmaceuticals, 2023):
Converted amounts (≈) assume the structure as drawn. “Also recorded” adds a separate entry of the source. Like-named read-outs stand apart in the source and are kept apart here.

What was measured:
[1] = test system: GFP-expressing M. tuberculosis H37Rv; set-up: method as in PMID 32505086; conditions: Middlebrook 7H9 liquid medium with OADC (contains albumin); 5 days; GFP signal; reported previously; cited from earlier work
[2] = test system: GFP-expressing M. tuberculosis H37Rv; assay: microbe, parasite or virus in culture; format: cell-based; conditions: Mycobacterium tuberculosis
MabA [3] = target: T1, MabA (Mycobacterium tuberculosis, UniProt P9WGT3); assay: MabA LC-MS/MS-based enzymatic assay (reduction of acetoacetyl-CoA into HBCoA); format: biochemical; conditions: for IC50: concentration inhibiting 50% of the transformation of acetoacetyl-CoA in HBCoA in the presence of NADPH, LC-MS/MS
LogD octanol/PBS pH 7.4 = conditions: octanol/PBS 1/1, pH 7.4
Solubility in PBS pH 7.4 = conditions: PBS pH 7.4, pH 7.4, aqueous buffer, kinetic from dmso stock
plasma proteins = assay: Plasma protein binding by rapid equilibrium dialysis; conditions: 10% plasma (diluted 1 to 10 in phosphate buffer), pH 7.2
MabA [4] = target: T1, MabA; format: binding
[5] = test system: H37Rv carrying pUV15-pHGFP; format: cell-based, M. tuberculosis; conditions: pH 4.5
[6] = Solubility in Sauton medium; format: physicochemical; conditions: aqueous buffer
M. tuberculosis H37Rv = format: cell-based
H37Rv [7] = format: cell-based, M. tuberculosis
H37Rv [8] = format: cell-based, M. tuberculosis; remark: listed apart in the source

T1 sequence (P9WGT3 whole entry, looked up): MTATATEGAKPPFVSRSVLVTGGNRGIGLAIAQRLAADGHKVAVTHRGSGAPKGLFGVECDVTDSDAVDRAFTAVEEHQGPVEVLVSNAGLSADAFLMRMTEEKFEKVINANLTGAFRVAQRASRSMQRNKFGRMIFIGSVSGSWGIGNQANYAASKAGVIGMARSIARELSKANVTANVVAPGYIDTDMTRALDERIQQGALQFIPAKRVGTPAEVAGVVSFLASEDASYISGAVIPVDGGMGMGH

In the case of O=C(Nc1ccc(I)cc1C(=O)O)c1ccc(Cl)c(Cl)c1 [Compound 1, 2-[(3,4-dichlorobenzoyl)amino]-5-iodo-benzoic acid], the MIC90 [1] is given as 300 µM (≈ 131 µg/mL), the MIC90 [2] is given as 300 µM (≈ 131 µg/mL) and the MIC90 ([2]; 168 h) is given as 100 µM (≈ 43.6 µg/mL). The IC50 (MabA [3]) was 38 ± 6 µM, the logD at 2 h (LogD octanol/PBS pH 7.4) was 3.4 and the solubility at 24 h (Solubility in PBS pH 7.4) was over 200 µM. It also gave a fraction unbound at 4 h, 10 µM (plasma proteins) of 0.0014.

In the case of O=C(Nc1ccc(Br)cc1C(=O)O)c1ccc(Cl)c(Cl)c1 [Compound 2, 5-bromo-2-[(3,4-dichlorobenzoyl)amino]benzoic Acid], the MIC90 [1] is listed as 300 µM (≈ 117 µg/mL), the MIC90 ([2]; 168 h) is listed as 100 µM (≈ 38.9 µg/mL) and the IC50 (MabA [3]) is listed as 45 µM. The logD at 2 h (LogD octanol/PBS pH 7.4) was 3 and the solubility at 24 h (Solubility in PBS pH 7.4) was 181 µM (≈ 70.4 µg/mL).

CN(C(=O)c1ccc(Cl)c(Cl)c1)c1ccc(I)cc1C(=O)O [Compound 3, 2-[(3,4-dichlorobenzoyl)-methyl-amino]-5-iodo-benzoic Acid] gave an IC50 (MabA [3]) of over 200 µM.

O=C(O)c1cc(I)ccc1NS(=O)(=O)c1ccc(Cl)c(Cl)c1 [Compound 4, 2-[(3,4-dichlorophenyl)sulfonylamino]-5-iodo-benzoic Acid] gave an IC50 (MabA [3]) of 40 µM.

O=C(O)c1cc(Br)ccc1C(=O)Nc1ccc(Cl)c(Cl)c1 [Compound 5, 5-bromo-2-[(3,4-dichlorophenyl)carbamoyl]benzoic Acid] gave an IC50 (MabA [3]) of 268 µM.

With O=C(O)c1cc(Br)ccc1NC(=S)c1ccc(Cl)c(Cl)c1 [Compound 6, 5-bromo-2-[(3,4-dichlorobenzenecarbothioyl)amino]benzoic Acid] the IC50 (MabA [3]) was 39 µM.

For O=C(O)c1cc(Br)ccc1-c1nc(-c2ccc(Cl)c(Cl)c2)no1 [Compound 7, 5-bromo-2-[3-(3,4-dichlorophenyl)-1,2,4-oxadiazol-5-yl]benzoic Acid], the IC50 (MabA [3]) was 102 µM.

Molecule O=C(Nc1ccc(I)cc1CO)c1ccc(Cl)c(Cl)c1 [Compound 8, 3,4-dichloro-N-[2-(hydroxymethyl)-4-iodo-phenyl]benzamide] has an IC50 (MabA [3]) of over 333 µM.

Work on NC(=O)c1cc(I)ccc1NC(=O)c1ccc(Cl)c(Cl)c1 [Compound 9, N-(2-carbamoyl-4-iodo-phenyl)-3,4-dichloro-benzamide] yielded an IC50 (MabA [3]) of over 500 µM.

N#Cc1cc(I)ccc1NC(=O)c1ccc(Cl)c(Cl)c1 [Compound 10, 3,4-dichloro-N-(2-cyano-4-iodo-phenyl)benzamide] gave an IC50 (MabA [3]) of over 1000 µM.

Work on O=C(Nc1ccc(I)cc1-c1nnn[nH]1)c1ccc(Cl)c(Cl)c1 [Compound 11, 3,4-dichloro-N-[4-iodo-2-(1H-tetrazol-5-yl)phenyl]benzamide] yielded an IC50 (MabA [3]) of 24 µM.

With O=C(Nc1ccc(I)cc1C(=O)NS(=O)(=O)C(F)(F)F)c1ccc(Cl)c(Cl)c1 [Compound 12, 3,4-dichloro-N-[4-iodo-2-(trifluoromethylsulfonylcarbamoyl)phenyl]benzamide] the “19F- and 1H-NMR signal in the presence of MabA” value (MabA [4]) was “confirmed the direct binding; also recorded: total disappearance of the signal”, the MIC90 ([2]; 168 h) was 300 µM (≈ 170 µg/mL) and the IC50 (MabA [3]) was 35 µM. For the same molecule, the logD at 2 h (LogD octanol/PBS pH 7.4) was 4.1, the solubility at 24 h (Solubility in PBS pH 7.4) was 180 µM (≈ 102 µg/mL) and the fraction unbound at 4 h, 10 µM (plasma proteins) was 0.0002.

CS(=O)(=O)NC(=O)c1cc(I)ccc1NC(=O)c1ccc(Cl)c(Cl)c1 [Compound 13, 3,4-dichloro-N-[4-iodo-2-(methylsulfonylcarbamoyl)phenyl]benzamide] showed an IC50 (MabA [3]) of 28 µM.

O=C(Nc1cc(Br)ccc1C(=O)O)c1ccc(Cl)c(Cl)c1 [Compound 14, 4-bromo-2-[(3,4-dichlorobenzoyl)amino]benzoic Acid] showed an IC50 (MabA [3]) of 34 µM.

O=C(Nc1ccccc1C(=O)O)c1ccc(Cl)c(Cl)c1 [Compound 15, 2-[(3,4-dichlorobenzoyl)amino]benzoic Acid] showed an IC50 (MabA [3]) of over 1000 µM.

In the case of O=C(Nc1ccc(C#CC2CC2)cc1C(=O)O)c1ccc(Cl)c(Cl)c1 [Compound 16, 5-(2-cyclopropylethynyl)-2-[(3,4-dichlorobenzoyl)amino]benzoic Acid], the “effect on intrabacterial pH” value [5] is reported as “dose-dependent decrease in the intrabacterial pH”, the solubility [6] is reported as over 300 µM and the “effect on mycolic acids synthesis (TLC)” value (M. tuberculosis H37Rv) is reported as “no specific inhibition of mycolic acids”. For the same molecule, the “effect of pH on potency” value (H37Rv [7]) was “decreasing pH improved the potency”, the MIC90 ([2]; 168 h) was 100 µM (≈ 37.4 µg/mL) and the IC50 (MabA [3]) was 60 µM. The transcriptional response (H37Rv [8]) was “downregulation of genes implicated in DNA replication, transcription, translation and growth”, the solubility at 24 h (Solubility in PBS pH 7.4) was over 200 µM and the fraction unbound at 4 h, 10 µM (plasma proteins) was 0.0006.

For C#Cc1ccc(C(=O)O)c(NC(=O)c2ccc(Cl)c(Cl)c2)c1 [Compound 17, 2-[(3,4-dichlorobenzoyl)amino]-4-ethynyl-benzoic Acid], the “fold reduction in potency” value (MabA [3]) was 2 fold and the IC50 (MabA [3]) was 77 µM.

In the case of O=C(Nc1cc(-n2cccn2)ccc1C(=O)O)c1ccc(Cl)c(Cl)c1 [Compound 18, 2-[(3,4-dichlorobenzoyl)amino]-4-pyrazol-1-yl-benzoic Acid], the solubility [6] is reported as over 300 µM, the “effect on mycolic acids synthesis (TLC)” value (M. tuberculosis H37Rv) is reported as “no specific inhibition of mycolic acids” and the MIC90 ([2]; 168 h) is reported as 300 µM (≈ 113 µg/mL). For the same molecule, the “improvement of the activity by a factor” value (MabA [3]) was 1.6, the IC50 (MabA [3]) was 23 µM and the logD at 2 h (LogD octanol/PBS pH 7.4) was 2.54. The solubility at 24 h (Solubility in PBS pH 7.4) was 149 µM (≈ 56.1 µg/mL) and the fraction unbound at 4 h, 10 µM (plasma proteins) was under 0.0001.

With O=C(Nc1cc2ccccc2cc1C(=O)O)c1ccc(Cl)c(Cl)c1 [Compound 19, 3-[(3,4-dichlorobenzoyl)amino]naphthalene-2-carboxylic Acid] the IC50 (MabA [3]) was 33 µM.

For O=C(Nc1nc2ccccc2cc1C(=O)O)c1ccc(Cl)c(Cl)c1 [Compound 20, 2-[(3,4-dichlorobenzoyl)amino]quinoline-3-carboxylic Acid], the “fold reduction in potency” value (MabA [3]) was 2 fold and the IC50 (MabA [3]) was 76 µM.

With CCc1cc(C(N)=S)ccn1 [ethionamide, reference compound] the MIC ([2]; 168 h) was 2 µg/mL (≈ 12 µM).

For NNC(=O)c1ccncc1 [isoniazid, reference compound], the “effect on mycolic acids synthesis (TLC)” value (M. tuberculosis H37Rv) was “decrease in mycolic acids synthesis” and the MIC ([2]; 168 h) was 0.125 µg/mL (≈ 0.911 µM).

For CO[C@H]1/C=C/O[C@@]2(C)Oc3c(C)c(O)c4c(O)c(c(/C=N/N5CCN(C)CC5)c(O)c4c3C2=O)NC(=O)/C(C)=C\C=C\[C@H](C)[C@H](O)[C@@H](C)[C@@H](O)[C@@H](C)[C@H](OC(C)=O)[C@@H]1C [rifampicine, reference compound], the MIC ([2]; 168 h) was 0.004 µg/mL (≈ 0.00486 µM).
